Assays:
[1] = target: T1, LecA (Pseudomonas aeruginosa, UniProt Q05097); test: Library screening using the FP competitive binding assay (three concentrations); conditions: read-out: Activity [%] (% inhibition relative to 500 µM pNPGal)
T1 construct: made in house; host or cells: E. coli BL21 (DE3), plasmid pET25pa11
From the text: Next, we screened a library of catechols from F. Hoffmann‐La Roche, the developer of Tolcapone, in the competitive binding assay to establish a structure–activity relationship. To this end, two sets of compounds with a molecular cut‐off of 500 Da were chosen: a first set of 342 compounds contained derivatives of Tolcapone, while a second set of 3222 compounds comprised catechols covering a larger chemical space. […] Tests were run in a 384‐well‐plate format at three concentrations (first set at 125, 32, and 4 µM, second set at 100, 25, and 3 µM) in presence of 10% DMSO and 250 µM 2‐mercaptoethanol to prevent interference by a potential unspecific reactivity of electron‐rich catechols as established earlier.^[ [30] ^]
The screening followed the same assay by Joachim et al.^[2] as described above. Compounds in DMSO (1 µL with the appropriate concentration) were plated using a robot into black 384-well microtiter plates (Greiner Bio-One, Germany, cat no 781900) by the Roche compound handling facility at four replicates per concentration and compound. A mixture of LecA, sulfo-Cy5-Gal and 2-mercaptoethanol in TBS/Ca (20 mM Tris, 147 mM NaCl, 2.6 mM KCl at pH 7.4 supplemented with 1 mM CaCl2) with DMSO was added at HIPS. Final concentrations in both screening rounds were the following: 5 µM LecA, 250 µM 2-mercaptoethanol, 10 nM sulfo-Cy5-Gal and 10% DMSO. Final concentrations of the 342 compounds of the first screening round were 125 µM, 32 µM and 4 µM. The 3222 compounds of the second screening round were tested at final concentrations of 100 µM, 25 µM and 3 µM. The plate was sealed (EASYseal, Greiner Bio-One, cat no 676001), briefly centrifuged and incubated at room temperature in the dark under shaking conditions. Fluorescence intensities were measured after 1 h and 24 h using a PheraStar FS plate reader (BMG Labtech GmbH, Germany) with spectral filters for excitation at 590 nm and emission at 675 nm and polarization was calculated after blank values of 5 µM LecA in TBS/Ca buffer with 250 µM 2-mercaptoethanol and 10% DMSO were subtracted from the test compounds. The data were analysed using the MARS Data Analysis software. […] All stated values are the average including the standard deviation based on three replicates for 100 µM and four replicates in the case of compounds at 125 µM.

[2] = target: T1, LecA; test: biochemical; format: binding; conditions: IC50, LecA inhibition, competitive binding assay (FP), tested up to 1.5 mM, n ≥ 2
Method: Therefore, we focused our attention on commercially available nitro‐catechols. Prominent derivatives are inhibitors of the enzyme catechol‐O‐methyltransferase (COMT) and approved drugs for the treatment of Parkinson's disease. Four commercial COMT inhibitors were thus evaluated in a previously reported competitive binding assay based on fluorescence polarisation (FP, Table 1, Figure 1).^[ [32] ^]
The competitive binding assay was performed in analogy to Joachim et al.^[2] 10 µL of a solution containing LecA (40 µM) and sulfo-Cy5-Gal (20 nM, synthesis described in Kuhaudomlarp, Siebs et al.^[5]) in TBS/Ca buffer (20 mM Tris, 147 mM NaCl, 2.6 mM KCl at pH 7.4 supplemented with 1 mM CaCl2) were distributed in into wells of a black 384-well microtiter plate (Greiner Bio-One, Germany, cat no 781900). Then, 10 µL of serial dilutions of compounds (3 mM to 1.5 µM, dilution factor 0.5) in TBS/Ca with 40% DMSO were added in technical triplicates. Final concentrations after mixing were the following: 1.5 mM – 0.73 µM compound, 20 µM LecA, 10 nM sulfo-Cy5-Gal and 20% DMSO. The plate was sealed (EASYseal, Greiner Bio-One, cat no 676001), briefly centrifuged and incubated at room temperature in the dark under shaking conditions. Fluorescence intensity was measured after 1 h and 4 h using a PheraStar FS plate reader (BMG Labtech GmbH, Germany) with spectral filters for excitation at 590 nm and emission at 675 nm and polarization was calculated after blank values of 20 µM LecA in TBS/Ca buffer with 20% DMSO were subtracted from the test compounds. The data were analysed using the four-parameter variable slope model of the MARS Data Analysis software. The top and bottom plateau were assigned based on the control compound methyl α-d-galactoside and the data was reanalysed with these fixed values. If not mentioned otherwise, the experiment was repeated at least three times for each compound and the average and standard deviation are given. In case Triton X-100 was used it was added to the TBS/Ca buffer before the assay.

[3] = target: T1, LecA; test: Surface plasmon resonance (SPR) direct binding, steady-state affinity
Method: To confirm the affinity of Tolcapone toward LecA in an orthogonal assay, the compound was then evaluated in a direct binding experiment by surface plasmon resonance (SPR).
Using a BIACORE X100, LecA was immobilised on a CM7 chip by standard amine coupling at 25 °C as described previously.^[5] From a 200 mM solution of Tolcapone in 100% DMSO, a 10 mM solution in PBS (supplemented with 0.05% Tween20 and 100 µM CaCl2) was prepared. The final dilutions (0 – 2000 µM) were then prepared by dilution with running buffer (PBS supplemented with 0.05% Tween 20, 100 µM CaCl2 and 5% DMSO). Increasing concentrations of Tolcapone were injected onto the immobilised LecA in steady-state affinity studies (30 s association, 60 s dissociation, flow rate 30 µL/min). Data was corrected by subtraction of the reference channel (no immobilised LecA) and analysed with the BIACORE X100 evaluation software (version 2.0). The average binding affinity and standard deviation of three independent experiments is given.

[4] = one of the hydroxy groups; no reference given; cited from earlier work

T1 sequence (Q05097 whole entry): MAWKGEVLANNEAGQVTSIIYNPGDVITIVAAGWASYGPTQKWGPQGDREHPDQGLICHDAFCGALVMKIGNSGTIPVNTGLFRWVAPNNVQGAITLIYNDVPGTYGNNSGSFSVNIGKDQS

Question: With `Cc1ccc(C(=O)c2cc(O)c(O)c([N+](=O)[O-])c2)cc1` [compound 4, Tolcapone] as the molecule, how does the inhibition at 100 µM [1] read?
Answer: Its inhibition at 100 µM is 43.9 ± 2.1%.

Question: What about the IC50 [2] of the same molecule?
Answer: The IC50 was 257 ± 40 µM.

Question: And the Kd [3]?
Answer: Its Kd is 181 ± 6 µM.

Question: And the pKa [4]?
Answer: Its pKa is roughly 4.6.

Source: paper PMC12684298, “The Parkinson's Disease Drug Tolcapone and Analogues are Potent Glycomimetic Lectin Inhibitors of Pseudomonas aeruginosa LecA” (Angewandte Chemie (International Ed. in English), 2025)
